ChEMBL document CHEMBL1201862, “PubChem BioAssay data set” (2004)
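Exposure lasted 48 hours, with cells grown in 96-well plates and compounds tested at five concentrations. GI50 = concentration required for 50% inhibition of growth.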 Active and inactive are the calls of the source. Rule as the data show it: active = GI50 up to about 1.1 µM and inactive = higher.

Key:
Assay in all cases: NCI anticancer screen, dose series, 48 h
SK-MEL-28 = system: SK-MEL-28
DU-145 = system: DU-145
SF-268 = system: SF-268
786-0 = system: 786-0
KM12 = system: KM12
SK-OV-3 = system: SK-OV-3
HCT-15 = system: HCT-15
CCRF-CEM = system: CCRF-CEM
IGROV-1 = system: IGROV-1
COLO 205 = system: COLO 205
CAKI-1 = system: CAKI-1
NCI-H460 = system: NCI-H460
SN12C = system: SN12C
MDA-MB-435 = system: MDA-MB-435
HL-60 = system: HL-60
U-251 = system: U-251
NCI-H522 = system: NCI-H522
TK-10 = system: TK-10
LOX IMVI = system: LOX IMVI
NCI-H226 = system: NCI-H226

| SMILES | GI50 (SK-MEL-28) | GI50 (DU-145) | GI50 (SF-268) | GI50 (786-0) | GI50 (KM12) | GI50 (SK-OV-3) | GI50 (HCT-15) [µM] | GI50 (CCRF-CEM) | GI50 (IGROV-1) | GI50 (COLO 205) | GI50 (CAKI-1) | GI50 (NCI-H460) | GI50 (SN12C) | GI50 (MDA-MB-435) | GI50 (HL-60) | GI50 (U-251) | GI50 (NCI-H522) | GI50 (TK-10) | GI50 (LOX IMVI) | GI50 (NCI-H226) |
| --- | --- | --- | --- | --- | --- | --- | --- | --- | --- | --- | --- | --- | --- | --- | --- | --- | --- | --- | --- | --- |
| OCCCc1cc(O)c2c(c1)C(CO)C(c1ccc(O)c(O)c1)O2 (stereo not given) | > 100 µM (inactive) | > 100 µM (inactive) | > 100 µM (inactive) | > 100 µM (inactive) | > 100 µM (inactive) | > 100 µM (inactive) | > 100 | > 100 µM (inactive) | > 100 µM (inactive) | > 100 µM (inactive) | > 100 µM (inactive) | > 100 µM (inactive) | > 100 µM (inactive) | > 100 µM (inactive) | > 100 µM (inactive) | > 100 µM (inactive) | 48.8 µM (inactive) | > 100 µM (inactive) | > 100 µM (inactive) | > 100 µM (inactive) |
| COc1cccc(C2c3cc4c(cc3OC(Nc3ccccc3)C2C)OCO4)c1O (stereo not given) | 7.21 µM (inactive) | 15.4 µM (inactive) | 12.2 µM (inactive) | 9.08 µM (inactive) | 4.63 µM (inactive) | 10.3 µM (inactive) | 5.62 | 2.58 µM (inactive) | 8.95 µM (inactive) | 4.3 µM (inactive) | 13.5 µM (inactive) | 4.97 µM (inactive) | 8.83 µM (inactive) | 2.15 µM (inactive) | 9.93 µM (inactive) | 5.7 µM (inactive) | 4.4 µM (inactive) | 15.8 µM (inactive) | 5.21 µM (inactive) | 12 µM (inactive) |
| FC(F)(F)c1ccc(/N=C/C=C(/Nc2ccc(C(F)(F)F)cc2)c2ccc(Cl)cc2)cc1 | 15.1 µM (inactive) | 13.5 µM (inactive) | 12.1 µM (inactive) | 15.5 µM (inactive) | 4.71 µM (inactive) | 16.4 µM (inactive) | 4.73 | 5.22 µM (inactive) | 2.62 µM (inactive) | 10.5 µM (inactive) | 3.49 µM (inactive) | 4.38 µM (inactive) | 10.4 µM (inactive) | 6.82 µM (inactive) | 12.9 µM (inactive) | 11.3 µM (inactive) | 11.1 µM (inactive) | 15.8 µM (inactive) | 1.64 µM (inactive) | 4.53 µM (inactive) |
| CSc1nnc(SCc2nn3c(=O)cc(C)nc3s2)s1 | > 100 µM (inactive) | > 100 µM (inactive) | > 100 µM (inactive) | > 100 µM (inactive) | > 100 µM (inactive) | > 100 µM (inactive) | > 100 | > 100 µM (inactive) | > 100 µM (inactive) | > 100 µM (inactive) | > 100 µM (inactive) | > 100 µM (inactive) | > 100 µM (inactive) | > 100 µM (inactive) | > 100 µM (inactive) | > 100 µM (inactive) | > 100 µM (inactive) | > 100 µM (inactive) | > 100 µM (inactive) | > 100 µM (inactive) |
| CCOC(=O)c1sc2c(c1OC(=O)c1ccco1)c(=O)n(-c1ccccc1)c(=S)n2-c1ccccc1 | 60.5 µM (inactive) | 52.6 µM (inactive) | 46.1 µM (inactive) | 28.9 µM (inactive) | 33.4 µM (inactive) | > 100 µM (inactive) | 32.1 | 35.8 µM (inactive) | 17.9 µM (inactive) | 19.1 µM (inactive) | 34.3 µM (inactive) | 17.7 µM (inactive) | 23.7 µM (inactive) | 28.1 µM (inactive) | 24.9 µM (inactive) | 35.5 µM (inactive) | > 100 µM (inactive) | 39.1 µM (inactive) | 25.6 µM (inactive) | 22.1 µM (inactive) |
| CCN(CC)CCNc1ccc([N+](=O)[O-])c2nc3ccc(OC)cc3c(N)c12 | 1.65 µM (inactive) | 1.65 µM (inactive) | 1.65 µM (inactive) | 0.614 µM (active) | 1.12 µM (inactive) | 1.89 µM (inactive) | 1.27 | 0.248 µM (active) | 0.435 µM (active) | 0.4 µM (active) | 1.89 µM (inactive) | 1.22 µM (inactive) | 1.44 µM (inactive) | 1.45 µM (inactive) | 0.0826 µM (active) | 1.62 µM (inactive) | 0.309 µM (active) | 1.57 µM (inactive) | 0.172 µM (active) | 2.32 µM (inactive) |
| Cc1ccc(CC[PH](=O)CCc2ccc(C)nc2)cn1 | > 100 µM (inactive) | > 100 µM (inactive) | > 100 µM (inactive) | > 100 µM (inactive) | > 100 µM (inactive) | > 100 µM (inactive) | > 100 | > 100 µM (inactive) | > 100 µM (inactive) | > 100 µM (inactive) | > 100 µM (inactive) | > 100 µM (inactive) | > 100 µM (inactive) | > 100 µM (inactive) | > 100 µM (inactive) | > 100 µM (inactive) | > 100 µM (inactive) | > 100 µM (inactive) | > 100 µM (inactive) | > 100 µM (inactive) |
| O=C(Nc1ccc(Nc2ccc3c(c2)C(=O)c2ccccc2C3=O)c2c1C(=O)c1ccccc1C2=O)c1ccccc1 | > 100 µM (inactive) | 80.2 µM (inactive) | 44.9 µM (inactive) | 38.8 µM (inactive) | 34.2 µM (inactive) | 67.9 µM (inactive) | 7.62 | 14.6 µM (inactive) | 32.3 µM (inactive) | 51.6 µM (inactive) | > 100 µM (inactive) | 6.47 µM (inactive) | > 100 µM (inactive) | 3.53 µM (inactive) | 17.7 µM (inactive) | 19.5 µM (inactive) | 3.36 µM (inactive) | 95.3 µM (inactive) | > 82.2 µM (inactive) | > 100 µM (inactive) |
| Cc1ccc2c(c1)C(C(=O)N[C@@H]1C(=O)N3[C@@H]1SC(C)(C)[C@@H]3C(=O)O)OCCC2 (stereo not given in full) | > 100 µM (inactive) | > 100 µM (inactive) | > 100 µM (inactive) | > 100 µM (inactive) | > 100 µM (inactive) | > 100 µM (inactive) | > 100 | > 100 µM (inactive) | > 100 µM (inactive) | > 100 µM (inactive) | > 100 µM (inactive) | > 100 µM (inactive) | > 100 µM (inactive) | > 100 µM (inactive) | > 100 µM (inactive) | > 100 µM (inactive) | > 100 µM (inactive) | > 100 µM (inactive) | > 100 µM (inactive) | > 100 µM (inactive) |
| CC(C)CCC[C@@H](C)[C@H]1CC[C@H]2[C@@H]3CC[C@H]4C[C@H](N)CC[C@]4(C)[C@H]3CC[C@]12C | 28.3 µM (inactive) | 16.4 µM (inactive) | 26 µM (inactive) | 20.4 µM (inactive) | 23.6 µM (inactive) | 22.6 µM (inactive) | 24.8 | 2.83 µM (inactive) | 11.3 µM (inactive) | 21 µM (inactive) | 16.4 µM (inactive) | 22 µM (inactive) | 22.9 µM (inactive) | 27.1 µM (inactive) | 3.34 µM (inactive) | 13.8 µM (inactive) | 21 µM (inactive) | 16.6 µM (inactive) | 21.3 µM (inactive) | 17.3 µM (inactive) |
| O=C(N/N=C(COc1ccc(Cl)cc1)\N=C\c1cccnc1)c1ccncc1 | > 100 µM (inactive) | > 100 µM (inactive) | 63.8 µM (inactive) | > 100 µM (inactive) | 71 µM (inactive) | > 100 µM (inactive) | 85.9 | > 100 µM (inactive) | > 100 µM (inactive) | 96.8 µM (inactive) | > 100 µM (inactive) | > 100 µM (inactive) | > 100 µM (inactive) | 26.3 µM (inactive) | > 100 µM (inactive) | > 100 µM (inactive) | 23.5 µM (inactive) | > 100 µM (inactive) | > 100 µM (inactive) | 68.2 µM (inactive) |
| COc1c2cc([N+](=O)[O-])cc1CNC(=O)CN1CCOCCOCCN(CCOCCOCC1)CC(=O)NC2 | > 100 µM (inactive) | > 100 µM (inactive) | > 100 µM (inactive) | > 100 µM (inactive) | > 100 µM (inactive) | > 100 µM (inactive) | > 100 | > 100 µM (inactive) | > 100 µM (inactive) | > 100 µM (inactive) | > 100 µM (inactive) | > 100 µM (inactive) | > 100 µM (inactive) | > 100 µM (inactive) | > 100 µM (inactive) | > 100 µM (inactive) | > 100 µM (inactive) | > 100 µM (inactive) | > 100 µM (inactive) | > 100 µM (inactive) |
| COc1ccc(/C=C\c2cc(OC)c(OC)c(OC)c2)cc1OCC(=O)O | 6.61 µM (inactive) | 6.46 µM (inactive) | 10.9 µM (inactive) | 37.6 µM (inactive) | 5.86 µM (inactive) | 29 µM (inactive) | 9.62 | 4.68 µM (inactive) | 46.8 µM (inactive) | > 100 µM (inactive) | 48.2 µM (inactive) | 4.43 µM (inactive) | 9.18 µM (inactive) | 1.72 µM (inactive) | 2.84 µM (inactive) | 5.96 µM (inactive) | 3.36 µM (inactive) | > 97.3 µM (inactive) | 12.2 µM (inactive) | 15.1 µM (inactive) |
| O=C1CCCC2(c3ccccc3)Nc3ccccc3N12 (stereo not given) | > 100 µM (inactive) | > 100 µM (inactive) | > 100 µM (inactive) | > 100 µM (inactive) | > 100 µM (inactive) | > 100 µM (inactive) | > 100 | > 100 µM (inactive) | > 100 µM (inactive) | > 100 µM (inactive) | > 100 µM (inactive) | 78.5 µM (inactive) | > 100 µM (inactive) | > 100 µM (inactive) | 55.6 µM (inactive) | > 100 µM (inactive) | > 100 µM (inactive) | > 100 µM (inactive) | > 100 µM (inactive) | > 100 µM (inactive) |
